Test [1] deals with RT2 cells. The test can be described thus: MTT growth and trypan blue viability with NAC or Ad.Bcl-XL. In kind it is cell-based, rat. As to conditions: 10 mM NAC 30 min before 6 Gy; Ad.mda-7 25 m.o.i. As to the method:
FIG. 15A-D. Ad.mda-7 reduces the expression of Bcl-XL and increases the levels of BAX, consistent with a causal role of Bcl-XL expression in the radiosensitizing effect. Cells were cultured for 24 h after plating then infected with Ad.mda-7 or CMV control viruses (25 m.o.i.). The cells were irradiated (6 Gy) 24 hours after infection. Cells were isolated 96 h after irradiation and processed. Panel A. Ad.mda-7 and radiation suppress the expression of Bcl-XL and enhance BAX levels in RT2 cells 96 h after irradiation. Cells were processed for SDS PAGE and immunoblotting. A representative study (n=3). Panel B. RT2 cells were cultured for 24 h then infected with Ad.mda-7 or CMV control viruses at 25 m.o.i. The cells were irradiated (6 Gy) 24 hours after infection. Cells were isolated 96 h after irradiation and the integrity of nuclear DNA under each condition determined. Data are from two representative experiments. Panel C. […] Cells were processed 96 h after irradiation and cell viability determined via trypan blue exclusion assay. […]
MIT Assay for Determination of Cellular Viability. […] The cytotoxicity of the various treatments was assessed four days after irradiation by measurement of cell viability by use of the MTT assay, as described previously (Mosmann, 1983, J. Immunol. Methods 65:55-63). The plates were read on a Dynatech MR600 Microplate Reader at 540 nm. […]

The test system of test [2] is RCC cell lines A498 and UOK121N. The test can be described thus: MTT cell growth assay. In kind it is cell-based, human. As to conditions: As2O3 0.5 μM; 96 h. As to the method: (§1) FIG. 25A-D. GST-MDA-7 causes a dose-dependent reduction in the proliferation of renal carcinoma cells but not primary renal epithelial cells. Cells were plated in 12 well plates (˜1×10^4 cells/well) and 24 h later treated with increasing concentrations of GST and GST-MDA-7 as indicated. Cell growth was determined via MTT assay 96 h after GST-MDA-7 treatment. Data are the means of 12 wells (one plate per condition, ±SEM) from a representative experiment using different preparations of GST-MDA-7 (n=3). Panel A. UOK121N cells. Panel B. A498 cells. Panel C. Primary renal epithelial cells. Panel D. Primary rat hepatocytes were isolated and cultured as described in Methods. Four hours after plating, hepatocytes were infected with either control CMV virus or Ad.mda-7 (at a multiplicity of infection of 50). […] Cell growth was determined via MTT assay 96 h after MDA-7 treatment. […]
(§2) FIG. 27A-C. […] Cell growth was determined via MTT assay 96 h after GST-MDA-7 treatment. […]
(§3) MTT Assay for Determination of Cellular Viability. […] The cytotoxicity of the various treatments was assessed four days after irradiation by measurement of cell viability by use of the MTT assay, as described previously (McKinstry et al., 2002, Cancer Biol. Ther. 1:243-253). The plates were read on a Dynatech MR600 Microplate Reader at 540 nm. […]
For orientation: Tetrazolium dyes change colour on reduction, which living cells bring about.

Test [3] deals with primary renal epithelial cells. Description: MTT cell growth assay. The settings on record: low concentrations, each agent alone. It counts as cell-based, human. As to the method: as §1, §2, §3

On to `CC(=O)N[C@@H](CS)C(=O)O` [NAC, N-acetyl-cysteine], for which the “effect of NAC on Ad.mda-7 + radiation cell killing and proliferation” value in test [1] is “abolished the enhancement in cell killing and reduction in proliferation”.

Consider arsenic trioxide, for which the “effect of arsenic trioxide on growth suppression by GST-MDA-7” value in test [2] is “enhanced the growth suppressive effects of GST-MDA-7”. Moreover, the growth potential entry in test [3] is reported as “Neither low concentrations of arsenic trioxide nor GST-MDA-7 alone altered the growth potential”.

Values taken from patent US20060110376A1, “MDA-7 and free radicals in the treatment of cancer” (priority 2002, published 2006).
